Measured values reported in ChEMBL document CHEMBL3714722, “Aryl, Pyrimidyl Compounds, Pharmaceutical Compositions Comprising them, Their Use as Antimicrobial Agents” (2008).

Key:
[1] = system: Vero; assay: Growth inhibition of African green monkey Vero cells up to 250 ug/ml; assay type: cell-based; settings: chlorocebus sabaeus
[2] = system: Vero; assay: Cytotoxic activity against African green monkey Vero cells up to 250 ug/ml; assay type: cell-based; settings: chlorocebus sabaeus
[3] = target: T1, Thymidylate kinase (Mycobacterium tuberculosis, UniProt P9WKE1); assay: Inhibition of Mycobacterium tuberculosis TMPK using dTMP substrate and NADH by pyruvate kinase/lactate dehydrogenase coupling system based spectrophotometric assay
T1 sequence (P9WKE1 whole entry): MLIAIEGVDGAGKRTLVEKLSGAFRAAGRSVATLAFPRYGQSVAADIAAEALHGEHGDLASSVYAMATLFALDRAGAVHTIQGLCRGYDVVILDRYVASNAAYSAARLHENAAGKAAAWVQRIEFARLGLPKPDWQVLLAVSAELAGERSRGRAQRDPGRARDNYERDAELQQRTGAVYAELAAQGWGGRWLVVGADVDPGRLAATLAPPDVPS

Cc1cn(Cc2ccc(CCCCCC(=O)O)cc2)c(=O)[nH]c1=O
Activity [1]: Non-toxic | Activity [2]: Non-toxic

COC(=O)CCCC#Cc1ccc(Cn2cc(C)c(=O)[nH]c2=O)cc1
Ki [3]: Not Active
